Patent US9376499B2, “PAR-1 activation by metalloproteinase-1 (MMP-1)” (Tufts Medical Center, Inc., priority 2009, dated 2016)
No end group written: not given here.

Legend:
[1] = tested on: platelets; assay: Collagen-dependent aggregation of gel-filtered human platelets (light transmittance); format: cell-based; settings: for inhibition (loss) of collagen-induced platelet aggregation: 5 μg/ml collagen, 1,10-PA 100 μM, MMP-200 200 nM, FN-439 3 μM, RWJ-56110 1 μM, PAR1 Ab 75 μg/ml, pepducins 3 μM, PPACK 200 μM, hirudin 1 U/ml
Method: Platelet pellets and their supernatants were prepared as follows. […] following established informed consent procedures. […] Alternatively, whole blood was obtained from Hartley Sprague guinea pigs (drawn from the vena cava) into 3% citrate plus 10 U/ml heparin. Washed platelets from the guinea pigs were prepared in PIPES buffer. Platelet aggregation was measured with a Chronolog 560VS/490-2D aggregometer using modified PIPES buffer as a blank. Samples were incubated for 5 min in the presence of inhibitors and 1.8 mM CaCl2 prior to addition of agonist. All reactions were in final volumes of 250 μl at 37° C. while stirring at 900 rpm.
The effect of pharmacologic blockage of metalloproteases or PAR1 on collagen-dependent platelet aggregation was then tested (see FIG. 5). Gel-filtered platelets from healthy individuals (supplemented with 0.3 mg/ml fibrinogen) were challenged with 5 μg/ml collagen in the presence or absence (0.2% DMSO vehicle) of the indicated inhibitors and allowed to stir at 900 rpm in an aggregometer cuvette (250 μL) at 37° C.
In FIG. 5A, platelet aggregation was monitored by light transmittance.

[2] = tested on: p38 MAPK; assay: Collagen-induced phospho-p38 MAPK in platelets (western blot); format: cell-based, human; settings: 5 or 20 μg/ml collagen or 10 nM MMP-1; ARC 0.5 μM, aspirin 1 mM
Method: The effect of pharmacologic blockage of metalloproteases or PAR1 on collagen-dependent platelet aggregation was then tested (see FIG. 5). […] Platelets were pre-incubated for 5 min with the thrombin inhibitors PPACK (200 μM) or hirudin (1 U/ml), the Zn-chelator 1,10-phenanthroline (1,10-PA; 100 μM), the broad spectrum metalloprotease inhibitor MMP-200 (200 nM), the MMP-1 inhibitor FN-439 (3 μM), the PAR1 ligand binding site inhibitor RWJ-56110 (1 μM), the PAR1 blocking antibody (75 μg/ml), the PAR1 pepducin lipopeptides P1pal-12 (3 μM) or P1pal-7 (3 μM), the PAR4 pepducin lipopeptide P4pal-10 (3 μM), MMP-8 inhibitor (25 nM) or MMP9/13 inhibitor (10 nM).
In FIG. 5B, platelets were treated as in FIG. 5A and then lysed with Laemmli sample buffer 5 min after addition of collagen, p38 MAPK activity was then assessed by western blot with a p38 MAPK phospho-Ab and total p38 loading was determined using a p38 MAPK antibody.

[3] = tested on: Rho-GTP; assay: Collagen-induced Rho-GTP activity in platelets (western blot); format: cell-based, human; settings: 5 or 20 μg/ml collagen or 10 nM MMP-1; ARC 0.5 μM, aspirin 1 mM
Method: In FIG. 5C, platelets were treated as in FIG. 5B and then Rho GTP activity was assessed by western blot.
Representative blots are shown at the bottom of FIGS. 5B-D. Data are the mean±s.d. of three experiments. P*<0.01, #<0.05.

[4] = tested on: PAR1; assay: Release of PAR1 N-terminal cleavage peptide from gel-filtered platelets (dot blot, IIaR-A antibody); format: cell-based, human
Excerpt: To further understand how collagen is able to activate significant amounts of endogenous MMP-1 collagenase activity on the surface of platelets, experiments were devised to determine if PAR-1 is cleaved in either an autocrine or paracrine manner following exposure to collagen. Using a monoclonal antibody raised against the amino-terminal thrombin-cleavage peptide region of PAR1, residues 32-46 (Loew et al., 2000), the relative abilities of thrombin, MMP-1 and collagen to cause cleavage of platelet PAR1 was assessed. Gel filtered platelets were treated for 10 min with thrombin (3 nM), MMP-1 (3 nM), collagen (5 μg/ml), in the presence or absence (PBS buffer) of 0.00013 U hirudin or 5 μM FN-439 at 37° C. Supernatants were concentrated 20-fold and applied to nitrocellulose membranes, then probed with the IIaR-A monoclonal antibody. The PAR1 N-terminal thrombin deavage peptide (A26-R41) and PAR1 flexible linker peptide (N-acetyl-T67-L84 -C) (Kuliopulos et al., 1999) served as positive and negative controls (100 ng), respectively.
These platelets were then stimulated with collagen (5 μg/ml) for 10 min. at 37° C. Supernatants were concentrated 20-fold and applied to nitrocellulose membranes, then probed with the IIaR-A monoclonal antibody. […] FN-439, or an MMP1-blocking antibody (20 μg/ml) but not by thrombin inhibitor, hirudin (see FIG. 1E, FIG. 1G).

[5] = Carotid artery FeCl3 injury arterial thrombosis model; format: in vivo, guinea pig; settings: bivalirudin 0.18 mg/kg i.v.; from 13 min without
Excerpt: To assess the efficacy on arterial thrombosis by blockade of thrombin, MMP-1, or PAR1, a standard carotid artery FeCl3 injury model was used in guinea pigs. FeCl3 causes denudation of the artery and exposure of type I collagen and other subendothelial matrix proteins. The effects of blocking thrombin with bivalirudin, MMP-1 with FN-439, and PAR1 with either the small molecule antagonist RWJ-56110 or the P1pal-7 pepducin on arterial thrombosis were then compared using a dopier probe.
For these arterial thrombosis experiments, 10 min after i.v. administration of vehicle (−), bivalirudin, RWJ-56110, P1 pal-7 or FN-439 (n=4-5) through the jugular vein at the indicated concentrations, the right carotid arteries were injured for 20 min using a 24 mm^2 piece of Bio-Rad Trans-Blot paper soaked in 20% FeCl3. Arterial flow 5 mm distal to the site of injury was measured with a 0.5 V Doppler probe (Transonic Systems). An arterial occlusion was defined as a flow rate of <0.01 V for ≧5 min. Doppler measurements were terminated at the 30 min time point following injury (* designates p<0.05).

[6] = biological target: T1, PAR1 (Homo sapiens, UniProt P25116); assay: Platelet shape change (decrease in light transmittance); format: cell-based; settings: washed human platelets pretreated with 2 mM EGTA
T1 construct: able to cleave PAR1 on the surface of human platelets; endogenous in cells; host or cells: gel-filtered or washed human platelets
T1 sequence (P25116 22-425): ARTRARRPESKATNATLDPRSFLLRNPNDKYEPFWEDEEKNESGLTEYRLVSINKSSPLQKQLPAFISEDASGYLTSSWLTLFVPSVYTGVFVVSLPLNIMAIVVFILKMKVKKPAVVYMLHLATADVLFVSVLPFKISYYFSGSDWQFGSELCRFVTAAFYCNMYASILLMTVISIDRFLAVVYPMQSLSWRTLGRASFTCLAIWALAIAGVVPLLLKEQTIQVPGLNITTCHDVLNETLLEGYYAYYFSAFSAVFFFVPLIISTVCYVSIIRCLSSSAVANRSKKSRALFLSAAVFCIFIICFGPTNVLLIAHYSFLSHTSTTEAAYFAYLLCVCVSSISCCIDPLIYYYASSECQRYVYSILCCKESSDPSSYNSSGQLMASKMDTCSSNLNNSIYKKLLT
Method: In FIG. 3C, the ability of the […] peptide (PR-TRAP) to induce a change in platelet shape was determined. Washed human platelets were pretreated with 2 mM EGTA and then treated with the indicated agonists in the presence or absence of 1 μM RWJ-56110 while stirring at 1100 rpm. The decrease in light transmittance is an indication of the platelet shape change reaction.
In FIG. 4B, the ability of MMP-1 to induce platelet shape change was determined. Washed human platelets were pretreated with 2 mM EGTA and then challenged with MMP-1 in the presence or absence of 1 μM RWJ-56110 while stirring at 1100 rpm. Shape change was measured as described above.

[7] = tested on: platelets; assay: Platelet thrombus formation on collagen surface under arterial flow, heparin-anticoagulated whole blood; format: cell-based, human; settings: heparin 10 U/mL; shear rate 1,000 s-1; FN-439 3 μM, RWJ-56110 1 μM, pepducins 3 μM, aspirin 1 mM
Method: Following incubation with inhibitors, the blood was perfused over a glass slide coated with fibrillar collagen type I.
A flow chamber (Glycotech) with Type-I fibrillar collagen-coated glass slides was mounted on the stage of an IMT-2 inverted microscope (Olympus) equipped with Retiga 1300 digital camera (QImaging) and 40× objective. One of the flow chamber inlets was connected to a syringe pump (Harvard Apparatus) calibrated to create a shear rate of 1,000^s-1. The whole blood pretreated with the various pharmacologic inhibitors was then perfused over the collagen-coated glass slide. After 2-15 min of perfusion, blood was removed from the flow chamber by gentle displacement with PIPES buffer and images of 8-10 fields were acquired using OpenLab software (Improvision). Acquired images were further analyzed using NIH Image 1.63 software. Images were first sharpened and the edges of separate platelets and platelet aggregates were determined. Following the adjustment of threshold, images were converted into the binary format, and the particle analysis function was activated to highlight the regions covered by platelets with the sensitivity set to one single adherent thrombocyte. For the conversion of pixels into square micrometers, a calibration curve was built using 2.5, 6, 20, 25, and 45 μm polystyrene beads (Polyscience) using acquisition conditions identical to the experimental. The mean area of formed thrombus was determined at 7 min. Area measurements in FIG. 6B represent the mean±s.e. of three separate experiments from five different blood donors.

[8] = biological target: T1, PAR1; assay: p38 MAPK activation in platelets by tethered-ligand peptides; format: cell-based; settings: 5 min, 37° C.
Method: In FIG. 3B, the effect of the […] peptide (PR-TRAP) on p38 MAPK in platelets was measured. Platelets were stimulated with different concentrations of PR-TRAP, RP-TRAP or TRAP as indicated for 5 min at 37° C. Platelets were lysed with Laemmli sample buffer and proteins assessed by Western blot of p38 MAPK activity with phospho-specific p38 MAPK antibody or total p38MAPK antibody.

[9] = biological target: T1, PAR1; assay: PAR1-dependent RhoA activation (Rho-GTP) in platelets by tethered-ligand peptides; format: cell-based; settings: 30 μM peptide, 5 min, 37° C.
Method: Gel-filtered human platelets, supplemented with 0.3 mg/mL fibrinogen, were treated with 0.2% DMSO vehicle, or 30 μM SFLLRN (TRAP), PR-TRAP or reversed peptide (RP-TRAP), for 5 min at 37° C. in presence or absence of 1 μM RWJ-56110 as indicated. Platelets were lysed and Rho-GTP and total Rho was determined by Western analysis as described in the Experimental Procedures. Western bands were quantified by densitometry and results expressed relative to fold-increase from basal.

[10] = tested on: platelets; assay: Platelet thrombus formation on collagen surface under arterial flow, CTI-anticoagulated whole blood; format: cell-based, human; settings: CTI 30 μg/mL, hirudin 0.0013 U/mL, aspirin 1 mM
Method: Collagen-activated platelets also provide a pro-coagulant surface and produce tissue factor, which aids in the production of thrombin (Giesen at al., 1999; Mackman, 2004; Schwertz et al., 2006).
Whole blood was anti-coagulated with CTI (30 μg/mL) to block the contact pathway, otherwise the experiments were conducted identically as in FIG. 6A. Hirudin was used as indicated at 0.0013 UImL.

c1cnc2c(c1)ccc1cccnc12 [1,10-phenanthroline]
inhibition (loss) of collagen-induced platelet aggregation [1]: 80%

CSCCNc1nc(SCCC(F)(F)F)nc2c1ncn2[C@@H]1O[C@H](COP(=O)(O)OP(=O)(O)C(Cl)(Cl)P(=O)(O)O)[C@@H](O)[C@H]1O [AR-C69931MX]
effect on activation of phospho-p38 MAPK [2]: no effect | effect on activation of Rho-GTP [3]: no effect | suppression of aggregation to collagen ([1]; ARC 0.5 μM, aspirin 1 mM): could still suppress | block of collagen-induced release of PAR1 N-terminal peptide ([4]; 5 μg/ml collagen, 10 min, 37° C., Ab 20 μg/ml, ARC 0.5 μM, ASA 1 mM): no effect

NC(N)=NCCC[C@H](NC(=O)[C@@H]1CCCN1C(=O)[C@H](N)Cc1ccccc1)C(=O)CCl [PPACK]
inhibition (loss) of collagen-induced platelet aggregation [1]: no effect

Bivalirudin: thrombin inhibitor (Angiomax)
mean arterial occlusion time [5]: 20 min

DPR-TRAP: peptide corresponding to cleavage at L38↓D39PRSFLLRN (DPRSFLLRN; PAR1 N-terminal extracellular mutant)
agonist activity, platelet shape change [6]: nearly no activity

P1pal-12: PAR1 i3 loop pepducin lipopeptide, RCLSSSAVANRS (SEQ ID NO. 3), palmitate (also: palmitate, site not given here)
attenuation of growth rate and size of platelet aggregate strings [7]: ~75% | inhibition (loss) of collagen-induced platelet aggregation [1]: identical levels of inhibition as blocking MMP-1

P4pal-10: PAR4 pepducin lipopeptide (SGRRYGHALR; also: lipopeptide ('pal'), lipid and site not given here)
inhibition (loss) of collagen-induced platelet aggregation [1]: ~10%

PR-TRAP: synthetic peptide PRSFLLRN (SEQ ID NO:1), MMP1-generated tethered ligand of PAR1 (listed as Homo sapiens)
agonist activity, p38 MAPK signaling in platelets [8]: full agonist | agonist activity, PAR1-dependent Rho signaling in platelets [9]: full agonist | agonist activity, platelet shape change [6]: activated changes in platelet shape

R-TRAP: peptide corresponding to cleavage at LDP40↓R41SFLLRN (RSFLLRN)
agonist activity, platelet shape change [6]: partial agonist activity

RP-TRAP: control peptide in which the first two amino acid residues were reversed (RPSFLLRN; PAR1 N-terminal extracellular mutant)
agonist activity, p38 MAPK signaling in platelets [8]: did not stimulate | agonist activity, PAR1-dependent Rho signaling in platelets [9]: did not stimulate | agonist activity, platelet shape change [6]: did not stimulate

hirudin
effect on size of platelet micro-thrombi on collagen surfaces [10]: no effect | inhibition (loss) of collagen-induced platelet aggregation [1]: no effect | block of thrombin-induced release of N-terminal cleavage peptide of PAR1 ([4]; 3 nM thrombin, 0.00013 U hirudin): blocked
